From ChEMBL document CHEMBL4699640, “l-Tryptophan Induces a Marine-Derived Fusarium sp. to Produce Indole Alkaloids with Activity against the Zika Virus” (J Nat Prod, 2020)

Legend:
MDA-MB-231 = assay: Cytotoxicity against human MDA-MB-231 cells assessed as reduction in cell viability by MTT assay; assay type: cell-based
A549 = assay: Cytotoxicity against human A549 cells assessed as reduction in cell viability by MTT assay; assay type: cell-based
Zika virus = assay: Antiviral activity against Zika virus Z16019 infected in human A549 cells assessed as reduction in viral titer preincubated for 1 hr followed by compound washout and subsequent compound addition without virus and measured after 48 hrs by plaque assay; assay type: functional, organism-based
[1] = Zika virus, Z16019, A549, read-out: EC50

Compound | EC50 (Zika virus; [1]) [µM] | further results
CC(C)=CCC[C@]1(C)[C@@H](O)CC[C@@]2(C)[C@H]1CC[C@H]1Cc3c([nH]c4ccccc34)[C@@]12C [EMINDOLE SB] |  | IC50 (MDA-MB-231): 3.2 µM; IC50 (A549): 4.4 µM; EC50 (Zika virus; a549): Not Active
Nc1ccccc1CC(c1c[nH]c2ccccc12)c1c[nH]c2ccccc12 |  | EC50 (Zika virus; a549): Not Active
CC(C)=C[C@H]1C[C@]2(C)[C@H](CC[C@@]3(C)[C@H]2CC[C@H]2Cc4c([nH]c5ccccc45)[C@@]23C)O1 | 4.2 | 
C[S+]([O-])CCC(c1c[nH]c2ccccc12)c1c[nH]c2ccccc12 (stereo unspecified) |  | EC50 (Zika virus; a549): Not Active
C#C[C@@]1(O)[C@H](O)[C@@H](CO)O[C@H]1n1ccc2c(N)ncnc21 | 15 | 
O=C(c1c[nH]c2ccccc12)c1nccc2c1[nH]c1ccccc12 |  | IC50 (A549): 6.3 µM
COC(=O)Cc1c(-c2cc3ccccc3[nH]2)[nH]c2ccccc12 | 50 | 
O=C(Cc1c[nH]c2ccccc12)OCCc1c[nH]c2ccccc12 | 38 | 
CC(C)=C[C@H]1C[C@]2(C)[C@H](CC[C@@]3(C)[C@H]2CC[C@H]2CC(=O)c4ccccc4NC(=O)O[C@@]23C)O1 | 12 | 
CC(=O)OCC(=O)O[C@H]1CC[C@@]2(C)[C@@H](CC[C@H]3Cc4c([nH]c5ccccc45)[C@@]32C)[C@]1(C)CCC=C(C)C | 7.5 | 
O=C(C(=O)c1c[nH]c2ccccc12)c1c[nH]c2ccccc12 | 5 | 
CC(C)=C[C@H]1C[C@]2(C)[C@H](CC[C@@]3(C)[C@H]2CC[C@H]2CC(=O)c4ccccc4NC(=O)[C@@]23C)O1 [ASPORYZIN A] | 18 | 
O=C1c2ccccc2NC1(c1c[nH]c2ccccc12)c1c[nH]c2ccccc12 | 22 | 
CC(=O)C(C)(c1c[nH]c2ccccc12)c1c[nH]c2ccccc12 | 18 | 
